In the assay the target is T1, human MRGPRX2 (Homo sapiens, UniProt Q96LB1).
T1 sequence (Q96LB1 1-330): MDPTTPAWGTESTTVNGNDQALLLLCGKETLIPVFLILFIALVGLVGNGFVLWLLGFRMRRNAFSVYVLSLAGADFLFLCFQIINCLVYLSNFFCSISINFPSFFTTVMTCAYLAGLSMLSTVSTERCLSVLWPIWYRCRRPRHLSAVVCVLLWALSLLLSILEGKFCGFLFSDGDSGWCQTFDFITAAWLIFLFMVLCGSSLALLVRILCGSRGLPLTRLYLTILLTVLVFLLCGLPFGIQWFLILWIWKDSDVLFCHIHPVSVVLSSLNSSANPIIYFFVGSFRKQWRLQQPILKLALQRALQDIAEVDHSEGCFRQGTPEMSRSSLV
As to the kind of experiment: Ca2+ mobilization assay (FLIPR TETRA): inhibition of Cortistatin-14 mediated MRGPRX2 activation.

The term IC50 denotes the concentration that inhibits the measured activity by half. A lower IC50 goes with greater potency in that assay. `CC(C)(C(=O)Nc1ccc(OCC2CC2)cn1)N1CCC(F)(F)[C@@H](c2ccc(=O)[nH]c2)C1` (single isomer, unassigned) [Example 183] had an IC50 of 100 to 3160 nM.
The result for `C[C@@H](C(=O)Nc1ccc(OCC2CC2)nn1)N1CCC(F)(F)[C@@H](c2cc[n+]([O-])c(CC(F)(F)F)c2)C1` [Example 220] reads at most 10 nM; that for `C[C@@H](C(=O)Nc1ccc(Oc2ccccn2)cn1)N1CCC(F)(F)[C@@H](c2ccc(=O)[nH]c2)C1` [Example 61, (S)-2-((S)-4,4-difluoro-3-(6-oxo-1,6-dihydropyridin-3-yl)piperidin-1-yl)-N-(5-(pyridin-2-yloxy)pyridin-2-yl)propanamide], 10 to 100 nM.
As for `C[C@@H](C(=O)Nc1ccc(Oc2ncccc2F)cn1)N1CCC(F)(F)[C@@H](c2cc[n+]([O-])cc2)C1` [Example 125, 4-((S)-4,4-difluoro-1-((S)-1-((5-((3-fluoropyridin-2-yl)oxy)pyridin-2-yl)amino)-1-oxopropan-2-yl)piperidin-3-yl)pyridine 1-oxide], the IC50 lay within 10 to 100 nM.
The compound `C[C@@H](C(=O)Nc1ccc(Cc2ccccc2)nn1)N1CCC(F)(F)[C@@H](c2ccc(=O)[nH]c2)C1` [Example 12, (S)-N-(6-benzylpyridazin-3-yl)-2-((S)-4,4-difluoro-3-(6-oxo-1,6-dihydropyridin-3-yl)piperidin-1-yl)propanamide] yielded an IC50 of 10 to 100 nM.
`C[C@@H](C(=O)Nc1ncc(OCC2CC2)cc1F)N1CCC(F)(F)[C@@H](c2ccc(=O)[nH]c2)C1` [Example 28, (S)-N-(5-(cyclopropyl-methoxy)-3-fluoropyridin-2-yl)-2-((S)-4,4-difluoro-3-(6-oxo-1,6-dihydropyridin-3-yl)piperidin-1-yl)propanamide] returned an IC50 of 100 to 3160 nM.
On to `C[C@@H](C(=O)Nc1ccc(Oc2ccc(F)cc2F)cn1)N1CCC(F)(F)[C@@H](c2c[nH]c(=O)c(CN3CCC(F)(F)CC3)c2)C1` [Example 240, (S)-N-(5-(2,4-difluorophenoxy)pyridin-2-yl)-2-((S)-3-(5-((4,4-difluoropiperidin-1-yl)methyl)-6-oxo-1,6-dihydropyridin-3-yl)-4,4-difluoropiperidin-1-yl)propanamide], for which the IC50 is at most 10 nM.
Take `CCn1cc(C2CN([C@@H](C)C(=O)Nc3ccc(F)cn3)CCC2(F)F)ccc1=O` (stereo partly drawn) [Example 188, (2S)-2-(3-(1-ethyl-6-oxo-1,6-dihydropyridin-3-yl)-4,4-difluoropiperidin-1-yl)-N-(5-fluoropyridin-2-yl)propanamide]: the IC50 was in the range of 100 to 3160 nM.
The value for `C[C@@H](C(=O)Nc1ccc(Oc2ccc(F)cc2F)cn1)N1CCC(F)(F)[C@@H](c2c[nH]c(=O)c(CN)c2)C1` [Example 205, (S)-2-((S)-3-(5-(aminomethyl)-6-oxo-1,6-dihydropyridin-3-yl)-4,4-difluoropiperidin-1-yl)-N-(5-(2,4-difluorophenoxy)pyridin-2-yl)propanamide] was at most 10 nM; that for `C[C@@H](C(=O)Nc1ccc(Oc2ccc(F)cc2F)cn1)N1CCC(F)(F)[C@@H](c2c[nH]c(=O)c(CNC3CC(F)(F)C3)c2)C1` [Example 241, (S)-2-((S)-3-(5-(((3,3-difluorocyclobutyl)amino)methyl)-6-oxo-1,6-dihydropyridin-3-yl)-4,4-difluoropiperidin-1-yl)-N-(5-(2,4-difluorophenoxy)pyridin-2-yl)propanamide] was at most 10 nM.
The value for `C[C@@H](C(=O)Nc1ccc(CC2CCC2)cn1)N1CCC(F)(F)[C@@H](c2ccc(=O)[nH]c2)C1` [Example 84, (S)-N-(5-(cyclobutyl-methyl)pyridin-2-yl)-2-((S)-4,4-difluoro-3-(6-oxo-1,6-dihydropyridin-3-yl)piperidin-1-yl)propanamide] was 10 to 100 nM; that for `COCCNCc1cc(C2CN(C(C)C(=O)Nc3ccc(Oc4ccc(F)cc4)cn3)CCC2(F)F)c[nH]c1=O` (stereo not shown) [Example 239, 2-(4,4-difluoro-3-(5-(((2-methoxyethyl)amino)methyl)-6-oxo-1,6-dihydropyridin-3-yl)piperidin-1-yl)-N-(5-(4-fluorophenoxy)pyridin-2-yl)propanamide] was at most 10 nM.
The value for `C[C@@H](C(=O)Nc1ccc(OCC2CC2)cn1)N1CCC[C@@H](c2c[nH]c(=O)cc2C(F)(F)F)C1` (single isomer, unassigned) [Example 169] was 100 to 3160 nM; that for `C[C@@H](C(=O)Nc1ccc(Cl)cn1)N1CCC[C@@H](c2ccc(=O)[nH]c2)C1` [Example 158, (S)—N-(5-chloropyridin-2-yl)-2-((S)-3-(6-oxo-1,6-dihydropyridin-3-yl)piperidin-1-yl)propanamide] was 100 to 3160 nM; that for `C[C@@H](C(=O)Nc1ccc(OCC2CC2)cn1)N1CCC(F)(F)[C@@H](c2ccc(=O)[nH]c2)C1` [Example 75, (S)-N-(5-(cyclopropyl-methoxy)pyridin-2-yl)-2-((S)-4,4-difluoro-3-(6-oxo-1,6-dihydropyridin-3-yl)piperidin-1-yl)propanamide] was 10 to 100 nM.
`C[C@@H](C(=O)Nc1cnc(Oc2ccc(F)cc2)cn1)N1CCC(F)(F)[C@@H](c2c[nH]c(=O)c(CN)c2)C1` [Example 206, (S)-2-((S)-3-(5-(aminomethyl)-6-oxo-1,6-dihydropyridin-3-yl)-4,4-difluoropiperidin-1-yl)-N-(5-(4-fluorophenoxy)pyrazin-2-yl)propanamide] showed an IC50 of 10 to 100 nM.
The result for `CC(C(=O)Nc1ccc(Oc2cccc(=O)[nH]2)cn1)N1CCC(F)(F)[C@@H](c2ccc(=O)[nH]c2)C1` (stereo partly drawn) [Example 267, 2-((S)-4,4-difluoro-3-(6-oxo-1,6-dihydropyridin-3-yl)piperidin-1-yl)-N-(5-((6-oxo-1,6-dihydropyridin-2-yl)oxy)pyridin-2-yl)propanamide] reads 10 to 100 nM; that for `CC(C(=O)Nc1ccc(Oc2ccc(F)cc2)cn1)N1CCC(F)(F)C(c2ccc(=O)n(CCS(C)(=O)=O)c2)C1` (stereo not shown) [Example 192, 2-(4,4-difluoro-3-(1-(2-(methylsulfonyl)ethyl)-6-oxo-1,6-dihydropyridin-3-yl)piperidin-1-yl)-N-(5-(4-fluorophenoxy)pyridin-2-yl)propanamide], 10 to 100 nM.
The value for `C[C@@H](C(=O)Nc1ccc(Oc2ncc(F)cc2F)cn1)N1CCC(F)(F)[C@@H](c2c[nH]c(=O)c(CN3CCOCC3)c2)C1` [Example 228, (S)-2-((S)-4,4-difluoro-3-(5-(morpholinomethyl)-6-oxo-1,6-dihydropyridin-3-yl)piperidin-1-yl)-N-(5-((3,5-difluoropyridin-2-yl)oxy)pyridin-2-yl)propanamide] was 10 to 100 nM; that for `C[C@@H](C(=O)Nc1cnc(Oc2ccc(F)c(F)c2F)cn1)N1CCC(F)(F)[C@@H](c2cc[n+]([O-])cc2)C1` [Example 122, 4-((S)-4,4-difluoro-1-((S)-1-oxo-1-((5-(2,3,4-trifluorophenoxy)pyrazin-2-yl)amino)propan-2-yl)piperidin-3-yl)pyridine 1-oxide] was at most 10 nM.
The result for `CC(C)c1ccc(NC(=O)C(C)N2CCC(F)(F)[C@@H](c3ccc(=O)[nH]c3)C2)nc1` (stereo partly drawn) [Example 82, 2-((S)-4,4-difluoro-3-(6-oxo-1,6-dihydropyridin-3-yl)piperidin-1-yl)-N-(5-isopropylpyridin-2-yl)propanamide] reads 100 to 3160 nM.
Consider `Cc1nc(-c2ccc(Oc3ccc(NC(=O)[C@H](C)N4CCC(F)(F)[C@@H](c5ccc(=O)[nH]c5)C4)nc3)c(F)c2)cs1` [Example 99, (S)-2-((S)-4,4-difluoro-3-(6-oxo-1,6-dihydropyridin-3-yl)piperidin-1-yl)-N-(5-(2-fluoro-4-(2-methylthiazol-4-yl)phenoxy)pyridin-2-yl)propanamide], for which the IC50 fell in the range of 10 to 100 nM.
`C[C@@H](C(=O)Nc1ccc(Cl)cn1)N1CCC[C@@H](c2c[nH]c(=O)c(-c3ccccc3)c2)C1` (single isomer, unassigned) [Example 178] came in with a half-maximal inhibitory concentration (IC50) of 100 to 3160 nM.
Compound `CC(C(=O)Nc1ccc(Oc2ccccc2)cn1)N1CCC(F)(F)C(c2c[nH]c(=O)c(CN)c2)C1` (stereo not shown) [Example 202, 2-(3-(5-(aminomethyl)-6-oxo-1,6-dihydropyridin-3-yl)-4,4-difluoropiperidin-1-yl)-N-(5-phenoxypyridin-2-yl)propanamide] had an IC50 of at most 10 nM.
Compound `C[C@@H](C(=O)Nc1ccc(Cl)cn1)N1CCC[C@@H](c2c[nH]c(=O)c(C3CC3)c2)C1` (single isomer, unassigned) [Example 179] yielded an IC50 of 100 to 3160 nM.
On to `C[C@@H](C(=O)Nc1ccc(Oc2ncccc2F)cn1)N1CCC(F)(F)[C@@H](c2ccc(=O)[nH]c2)C1` [Example 65, (S)-2-((S)-4,4-difluoro-3-(6-oxo-1,6-dihydropyridin-3-yl)piperidin-1-yl)-N-(5-((3-fluoropyridin-2-yl)oxy)pyridin-2-yl)propanamide], for which the IC50 lay within 10 to 100 nM.
`CC(C(=O)Nc1ccc(F)cn1)N1CCC(F)(F)C(c2cc[n+]([O-])c(C(O)C(F)(F)F)c2)C1` (stereo not shown) [Example 256, 4-(4,4-difluoro-1-(1-((5-fluoropyridin-2-yl)amino)-1-oxopropan-2-yl)piperidin-3-yl)-2-(2,2,2-trifluoro-1-hydroxyethyl)pyridine 1-oxide] displayed an IC50 of 10 to 100 nM.
The result for `COc1ccc(NC(=O)C(C)N2CCC(F)(F)[C@@H](c3ccc(=O)[nH]c3)C2)nn1` (stereo partly drawn) [Example 43, 2-((S)-4,4-difluoro-3-(6-oxo-1,6-dihydropyridin-3-yl)piperidin-1-yl)-N-(6-methoxy-pyridazin-3-yl)propanamide] reads 3160 to 31600 nM.

For the origin of these results see US11976057B2, “MrgX2 antagonists” (GlaxoSmithKline Intellectual Property Development Limited, priority 2020, dated 2024).
